Results: US20130202619A1, “METHODS AND MATERIALS FOR REDUCING LIVER FIBROSIS” (MAYO FOUNDATION FOR MEDICAL EDUCATION AND RESEARCH, priority 2010, published 2013)
“And” between values parts separate entries of the source, which are not always exact repeats. Equal entries are not always repeated. “Also recorded” adds a separate entry of the source.

Key:
Assay type in all cases: cell-based, human
[1] = system: HuH7 cells; experiment: Lumican gene expression in HuH7 cells exposed to free fatty acids (real-time PCR); conditions: 400 μM fatty acid, 6 hours
Description: (§1) The hepatocyte cell line HuH7, the cholangiocyte cell line H69, and the hepatic stellate cell line LX2 were grown to confluence in DMEM with 10% fetal bovine serum and antibiotics Penicillin (100 U/mL) and Streptomycin (10 μg/mL) at 37° C. and 5% CO2 Cells were harvested, washed in cold phosphate buffered saline and snap frozen. […] At 24, 48 and 72 hours, cells were trypsin digested, washed three times with ice cold phosphate buffered saline and quick frozen at −80° C. in two separate lots for either protein or RNA extraction. In separate experiments, palmitic or stearic acid was added to the culture media of HuH7 cells at a concentration of 400 μM (Cazanave et al., J. Biol. Chem., 284:26591-26602 (2009)). All experiments were carried out in triplicate and results are reported as the average of triplicates.
(§2) Total RNA was isolated from cells collected from the cell culture experiments (described herein) or from liver tissue samples collected from patient or from mouse experiments (described herein) using the RNeasy Plus kit as per the manufacturer's instructions (Qiagen, GmbH, Germany). 500 ng of total RNA was reverse transcribed into cDNA using random hexamers (Transcriptor High Fidelity cDNA synthesis kit, Roche, USA). Real time PCR was carried on a LightCycler (Roche, CA, USA) using equal quantities of template cDNA in a total volume of 20 μL using Lightcycler FastStart DNA Master SYBR green1 (Roche, Indianapolis, USA). Expression of 18S rRNA was used as the internal standard (Quantum RNA 18S Internal Standards, Ambion Inc, Austin, Tex., USA). Standard curves were generated for each optimized assay using known PCR copy numbers to produce a linear plot of threshold cycle (Ct) against log dilution. Data for lumican is presented as lumican copy number normalized against the 18S absolute copy number where indicated. For all other gene expression assays, results are presented as fold change as represented by the expression 2^−ΔΔCt (Schmittgen & Livak, Nat. Protoc., 3:1101-1108 (2008)).
Gene expression data presented as copy number are expressed as mean±standard error. […]

[2] = system: LX2 cells; experiment: Response of LX2 cells to TGFβ1 (gene expression by real-time PCR, cell fate)
Description: as §1, §2
(§3) HuH7 or LX2 cells were plated at uniform density in single well chamber slides adopting the same protocol as for cell culture described above. At time points of 0, 24, 48, and 72 hours post seeding, medium was aspirated, slides were washed with phosphate buffered saline, air dried and stored at −80° C. until staining. Briefly, cells were fixed in acetone, followed by 1% paraformaldehyde. Cells were immunostained with anti human lumican at dilution of 1:50 (Santa Cruz, USA) and detected with appropriate FITC labeled secondary antibodies (MP Biomedicals, OH, USA). Negative controls consisted of identical treatments with omission of primary antibody. DAPI was used for nuclear staining (Sigma, MO, USA). Images were captured on an Olympus microscope with appropriate filter settings for FITC (green) and DAPI (blue).
(§4) Gene expression data presented as copy number are expressed as mean±standard error. Fold changes represent values normalized to 18S and to time point of 0 hours. To assess significance of difference between treatments, the paired 2-tailed student's test with equal variance was used. A p value of <0.05 was considered statistically significant.

[3] = system: HuH7 cells; experiment: Response of HuH7 cells to TGFβ1 (gene expression by real-time PCR, cell fate)
Description: as §1, §2, §3, §4

[4] = HuH7 cells, TGFβ1 2 ng/mL, 48 hours

Compound | increase in lumican expression [1] | increase in lumican expression ([1]; listed as palmitic) | increase in lumican gene expression over baseline ([2]; LX2 cells, TGFβ1 2 ng/mL, 72 hours) | cell fate (apoptosis / proliferation) ([2]; LX2 cells, TGFβ1 2 ng/mL, over 72 hours) | increase in alpha smooth muscle actin expression ([2]; LX2 cells, TGFβ1, 48 hours) | increase in collagen 1α1 gene expression ([2]; LX2 stellate cells, TGFβ1 2 ng/mL, 24 hours) | increase in collagen 1α1 gene expression ([2]; LX2 stellate cells, TGFβ1 2 ng/mL, 48 hours) | beta 1 integrin expression ([2]; LX2 stellate cells, TGFβ1 2 ng/mL, up to 72 hours) | increase in collagen 1α1 gene expression ([3]; HuH7 cells, TGFβ1 2 ng/mL, 24 hours) | increase in collagen 1α1 gene expression [3, 4] | increase in lumican gene expression [3, 4] | increase in lumican gene expression over baseline ([3]; HuH7 cells, TGFβ1 2 ng/mL, 72 hours) | cell fate (apoptosis / proliferation) ([3]; HuH7 cells, TGFβ1 2 ng/mL, over 72 hours) | decrease in albumin production ([3]; HuH7 cells, TGFβ1, 24 hours) | increase in alpha smooth muscle actin expression ([3]; HuH7 cells, TGFβ1, 48 hours) | decrease in albumin production ([3]; HuH7 cells, TGFβ1, 48 hours (48-72 hours)) | beta 1 integrin expression ([3]; HuH7 hepatocytes, TGFβ1 2 ng/mL, up to 72 hours)
CCCCCCCCCCCCCCCCCC(=O)O [stearic acid] | 1.9 fold and 2 fold |  |  |  |  |  |  |  |  |  |  |  |  |  |  |  | 
CCCCCCCCCCCCCCCC(=O)O [palmitic acid] | 3.1 fold | three fold |  |  |  |  |  |  |  |  |  |  |  |  |  |  | 
TGFβ1: pro-fibrotic cytokine transforming growth factor β1 (R&D systems), used at 2 ng/mL |  |  | 27 fold | continued to proliferate | 4.5 fold | 4 fold | 5 fold | gradual increase | 9 fold | > 100 fold | four fold | 15 fold and 14 fold | underwent apoptosis | 10 fold | fourfold; also recorded: four fold | five fold; also recorded: four fold | no change
